The target of experiment [1] is T1, Structural capsid protein (Human immunodeficiency virus 1, UniProt Q76129). The experiment can be described thus: Inhibition of HIV1 capsid.
Experiment [2] deals with T1, Structural capsid protein. The experiment can be described thus: Binding affinity to HIV1 capsid.

T1 sequence (Q76129 whole entry): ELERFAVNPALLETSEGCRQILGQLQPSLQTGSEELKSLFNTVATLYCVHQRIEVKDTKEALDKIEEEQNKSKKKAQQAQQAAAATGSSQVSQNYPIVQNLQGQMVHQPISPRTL

Consider `Cc1ccc(NC(=O)NCCSCc2ccc(CN(C)C)o2)cc1Cl`, for which the IC50 – broadly, the concentration that inhibits the measured activity by half – in experiment [1] was determined as 60 µM. The Kd – broadly, the concentration at which binding is half-saturated – in experiment [2] was determined as 800 µM.

(Values after ChEMBL document CHEMBL2331182, “Discovery of a small-molecule antiviral targeting the HIV-1 matrix protein” (Bioorg Med Chem Lett, 2013).)
